Results on four compounds are retold here after US20200261534A1, “NEW TREATMENTS OF MULTIPLE MYELOMA” (priority 2017, published 2020).

Read-outs that look alike come from different tables or passages of the source. Starred links: 1 amine or outer side, 2 acyl side, 3 side chain; linkers in the order of their positions; H or OH if unused. Positions of bridges follow the written chain, without caps; N, C: chain ends. Non-standard residues stand in square brackets, D forms with d. Residues, ends and D or L forms follow the SMILES beside them. ξ: configuration not given here. Biphenyl(4,4'-CH2)2 = c1cc(-c2ccc(C[*:2])cc2)ccc1C[*:1]; ξαMeNle(6-ylidene) = CC(CCCC=[*:3])(N[*:1])C(=O)[*:2]; X1 = CC(CCCCCCC=[*:3])(N[*:1])C(=O)[*:2]; Octanediyl(1,8) = C(CCCC[*:2])CCC[*:1]; ξC = NC(CS)C(=O)O

For test [1], the system named is MM1R, lymphoblast (myeloma), resistant to Dexamethasone. How it is done:
MM1R, lymphoblast, (myeloma), ATCC® CRL-2975™, resistant to Dexamethasone
(§1) All cell lines were cultured in incubator at 37° C. in RPMI-1640 (Sigma R8758) medium with 10% of fetal bovine serum inactivated (FBS) and 2 mM glutamine (Sigma G7513). During the amplification step cells were centrifuged and transferred into the culturing medium. Cells were counted in a Neubauer chamber after labelling with Tripan-Blue.
(§2) Cells were seeded at a density of 10000 cells/well in 100 μl of medium in 96 well plates. After 24 h, the compounds to be tested were added to calculate the dose/response curve at the starting concentration of 100 μM with serial dilutions (1:1). Controls are the untreated cells. Each experiment was performed in triplicate.
(§3) Cells were incubated with the peptidomimetic compound (S09) at the indicated concentrations during 24-72 h in incubator under CO2 atmosphere at 37° C. Then, cell viability was measured by means of MTT (3-(4,5-dimethylthiazol-2-yl)-2,5-diphenyltetrazolium bromide) assay. Stock solution of MTT (475989 Calbiochem) was 5 mg/ml in PBS. 1×.10 μl/well of MTT solution were added and the plate was incubated for 3-4 hr. The medium was discarded and 100 μl of extracting buffer (PBS 1×, 15% SDS, 50% […] N,N-Dimethylformamide, pH 4.7) were added to each well. Plates were incubated for 16 h at room temperature under orbital shaking. Absorbance at 570 nm was finally measured. As negative control (experiment noise) 3 wells were treated with 20 μl/well of a solution of SDS 10% in H2O.
(§4) Data analysis was performed calculating the percentage of cell viability normalized vs. the values of negative control, which was considered equal to 100%. The dose/response curve was fitted through the sigmoidal equation dose-response (variable slope) and the IC50 values were calculated as follow:
(§5) Y=Bottom+(Top−Bottom)/(1+10^{[(LogIC50−X)*HillSlope]},
(§6) All cell lines were cultured in incubator at 37° C. in RPMI-1640 (Sigma R8758) medium with 10% of fetal bovine serum inactivated (FBS) and 2 mM glutamine (Sigma G7513).
(§7) Cells were seeded at a density of 10,000 cells/well in 100 μl of medium in 96 well plates. After 24 h, the compounds to be tested were added to calculate the dose/response curve at the starting concentration of 40 μM with serial dilutions (1:1). Controls are the untreated cells. Each experiment was performed in triplicate.
as §3, with “compounds” for “compound (S09)”

Test [2] deals with RPMI-8266, lymphoblast (myeloma). Put plainly: MTT viability assay, RPMI-8266. The format is cell-based. How it is done:
RPMI-8266, lymphoblast (myeloma), ATCC® CCL155™
as §1, §2, §3, §4, §5, §6, §7
as §3, with “compounds” for “compound (S09)”
In general terms: Formazan colour is commonly taken as a measure of viable cells.

Test [3] concerns RPMI-8266-LR5, lymphoblast (myeloma), selected for resistance to Melphalan. Format: cell-based. How it is done: RPMI-8266-LR5, lymphoblast (myeloma), selected for resistance to Melphalan (Bellamy W T et al., Cancer Res. 1991 Feb. 1; 51(3):995-1002).
as §1, §2, §3, §4, §5, §6, §7
as §3, with “compounds” for “compound (S09)”

The test system of test [4] is U266DOX4, lymphoblast (myeloma), selected for resistance to Doxorubicin. Format: cell-based. How it is done: U266DOX4, lymphoblast (myeloma), selected for resistance to Doxorubicin (Alvarez-Fernández et al. Clin Cancer Res. 2013 May 15; 19(10):2677-87).
as §1, §2, §3, §4, §5
U266DOX4, lymphoblast (myeloma), selected for resistance to Doxorubicin (Alvarez-Fernandez et al. Clin Cancer Res. 2013 May 15; 19(10):2677-87).
as §6
Cells were seeded at a density of 10,000 cells/well in 100 μl of medium in 96 well plates. After 24 h, the compounds to be tested were added to calculate the dose/response curve at the starting concentration of 40 μM with serial dilutions (1:1). […]
Cells were incubated with the peptidomimetic compounds at the indicated concentrations during 24-72 h in incubator under CO2 atmosphere at 37° C. Then, cell viability was measured by means of MTT (3-(4,5-dimethylthiazol-2-yl)-2,5-diphenyltetrazolium bromide) assay. […] Absorbance at 570 nm was finally measured. […]

Test [5] concerns U266-LR7, lymphoblast (myeloma), selected for resistance to Melphalan. The format is cell-based. The protocol:
U266-LR7, lymphoblast (myeloma), selected for resistance to Melphalan (Alvarez-Fernández et al. Clin Cancer Res. 2013 May 15; 19(10):2677-87).
as §1, §2, §3, §4, §5
U266-LR7, lymphoblast (myeloma), selected for resistance to Melphalan (Alvarez-Fernandez et al. Clin Cancer Res. 2013 May 15; 19(10):2677-87).
as §6, §7
as §3, with “compounds” for “compound (S09)”

Test [6] concerns MBA-MD231, epithelial (breast cancer). The test can be described thus: MTT viability assay, MBA-MD231. The format is cell-based. How it is done: MBA-MD231, epithelial (breast cancer), ECACC: 86012803 […] During the amplification step and the assays adherent cells were rinsed with DPBS (Dulbecco's Phosphate Buffered Saline, Sigma D1283) three times and afterward treated for 5 minutes with trypsin ([…]) (Gibco-BRL, 15400054) in solution of DPBS at 37° C., and, once detached, transferred in the culturing medium. No-adherent cells were centrifuged and transferred in the culturing medium. Cells were counted in a Neubauer chamber after labelling with Tripan-Blue. […] Cells were seeded at a density of 10,000 cells/well in 100 μl of medium in 96 well plates. […] Controls are the untreated cells. Each experiment was performed in triplicate. Cells were incubated with the compounds at the indicated concentrations during 24-72 h in incubator under CO2 atmosphere at 37° C. […] Stock solution of MTT (475989 Calbiochem) was 5 mg/ml in PBS. 1×.10 μl/well of MTT solution were added and the plate was incubated for 3-4 hr. […] Plates were incubated for 16 h at room temperature under orbital shaking. Absorbance at 570 nm was finally measured. […] The dose/response curve was fitted through the sigmoidal equation dose-response (variable slope) and the IC50 values were calculated as follow: […]

In test [7] the test system is NCI-H929, lymphoblast (myeloma). The test can be described thus: MTT viability assay, NCI-H929. Format: cell-based. As to conditions: 24-72 h, Table 7, read-out: IC50 values in μM for S09. The protocol: NCI-H929, lymphoblast (myeloma), ATCC® CRL-9068™
as §1, §2
(§8) Cells were incubated with the peptidomimetic compound (S09) at the indicated concentrations during 24-72 h in incubator under CO2 atmosphere at 37° C. Then, cell viability was measured by means of MTT (3-(4,5-dimethylthiazol-2-yl)-2,5-diphenyltetrazolium bromide) assay. Stock solution of MTT (475989 Calbiochem) was 5 mg/ml in PBS. […] Absorbance at 570 nm was finally measured. […]
(§9) Data analysis was performed calculating the percentage of cell viability normalized vs. the values of negative control, which was considered equal to 100%. The dose/response curve was fitted through the sigmoidal equation dose-response (variable slope) and the IC50 values were calculated as follow: […]

For test [8], the system named is U266, lymphoblast (myeloma). Put plainly: MTT viability assay, U266. The format is cell-based. The conditions noted are these: 24-72 h, Table 7, read-out: IC50 values in μM for S09. How it is done:
U266, lymphoblast (myeloma), ATCC® TIB196™
as §1, §2, §8, §9

[9] abbreviates: RPMI-LR5, 72 hr, Table 14, read-out: IC50 after 72 hr values.
[10] abbreviates: U266DOX4, 72 hr, Table 14, read-out: IC50 after 72 hr values.
Where [11] appears, read: U266LR7, 24 hr, Table 13, read-out: IC50 after 24 hr values.
Where [12] appears, read: U266LR7, 72 hr, Table 14, read-out: IC50 after 72 hr values.
Setting [13] is: RPMI-LR5, 24 hr, Table 13, read-out: IC50 after 24 hr values.

As usually defined, the IC50 is the midpoint of a concentration-inhibition curve.

Regarding `CC[C@H](C)[C@H](NC(=O)[C@H](Cc1ccc(O)cc1)NC(=O)[C@H](C)NC(=O)C1CSCCCCCCCCSCC(NC(=O)[C@H](CCCCN)NC(=O)[C@@H]2CCCN2C(=O)[C@H](C)N)C(=O)N[C@@H](C(C)C)C(=O)N[C@@H]([C@@H](C)CC)C(=O)N[C@@H](CC(C)C)C(=O)N[C@@H](CCCCN)C(=O)N[C@@H](CCCCN)C(=O)N[C@@H](C)C(=O)N1)C(=O)N[C@@H](CC(C)C)C(=O)N[C@@H](CO)C(=O)O` (stereo partly shown) [IDP-P1708160] (H-APK[ξC]VILKKA[ξC]AYILS-OH; linker 4-11 via Octanediyl(1,8); N-terminus and C-terminus assumed), the IC50 is 15 µM in test [1] (24 h); 10 µM in test [1] (72 h); 15 µM in test [2] (24 h); 15 µM in test [2] (72 h); 7.5 µM in test [3] (setting [9]); 7.5 µM in test [4] (setting [10]). For the same compound, the IC50 in test [5] (setting [11]) stood at 2.5 µM; in test [5] (setting [12]) it was 2.5 µM; in test [6], 42 ± 2 µM.
As for `CC[C@H](C)[C@H](NC(=O)[C@H](Cc1ccc(O)cc1)NC(=O)[C@H](C)NC(=O)C1(C)CCCC=CCCCCCCC(C)(NC(=O)[C@H](CCCCN)NC(=O)[C@@H]2CCCN2C(=O)[C@H](C)N)C(=O)N[C@@H](C(C)C)C(=O)N[C@@H]([C@@H](C)CC)C(=O)N[C@@H](Cc2ccccc2)C(=O)N[C@@H](CCCCN)C(=O)N[C@@H](CCCCN)C(=O)N[C@@H](C)C(=O)N1)C(=O)N[C@@H](CC(C)C)C(=O)N[C@@H](CO)C(=O)O` (stereo partly shown) [S14, APKXVIFKKAXAYILS—OH] (H-APK[X1]VIFKKA[ξαMeNle(6-ylidene)]AYILS-OH; staple 4-11; N-terminus assumed), the IC50 is 15 µM in test [1] (24 h); 15 µM in test [1] (72 h); 10 µM in test [2] (24 h); 10 µM in test [2] (72 h); 10 µM in test [3] (setting [13]); 10 µM in test [3] (setting [9]). Also, the IC50 was 15 µM in test [4] (U266DOX4, 24 hr, Table 13, read-out: IC50 after 24 hr values); 15 µM in test [4] (setting [10]); 10 µM in test [5] (setting [11]); 10 µM in test [5] (setting [12]).
`CC[C@H](C)[C@H](NC(=O)[C@H](Cc1ccc(O)cc1)NC(=O)[C@H](C)NC(=O)[C@@H]1CSCc2ccc(cc2)-c2ccc(cc2)CSC[C@H](NC(=O)[C@H](CCCCN)NC(=O)[C@@H]2CCCN2C(=O)[C@H](C)N)C(=O)N[C@@H](C(C)C)C(=O)N[C@@H]([C@@H](C)CC)C(=O)N[C@@H](CC(C)C)C(=O)N[C@@H](CCCCN)C(=O)N[C@@H](CCCCN)C(=O)N[C@@H](C)C(=O)N1)C(=O)N[C@@H](CC(C)C)C(=O)N[C@@H](CO)C(=O)O` [IDP-P1708161] (H-APKCVILKKACAYILS-OH; linker 4-11 via Biphenyl(4,4'-CH2)2; N-terminus and C-terminus assumed): the IC50 in test [1] (24 h) was determined as 12.5 µM; in test [1] (72 h) it was 15 µM; in test [2] (24 h) it was 5 µM; in test [2] (72 h), 7.5 µM; in test [3] (setting [13]) it was 35 µM; in test [3] (setting [9]), 35 µM. In test [6], this compound displayed a concentration for half-maximal inhibition (IC50) of 29 ± 2 µM.
On to `CC[C@H](C)[C@H](NC(=O)[C@H](Cc1ccc(O)cc1)NC(=O)[C@H](C)NC(=O)C1(C)CCCC=CCCCCCCC(C)(NC(=O)[C@H](CCCCN)NC(=O)[C@@H]2CCCN2C(=O)[C@H](C)N)C(=O)N[C@@H](C(C)C)C(=O)N[C@@H]([C@@H](C)CC)C(=O)N[C@@H](CC(C)C)C(=O)N[C@@H](CCCCN)C(=O)N[C@@H](CCCCN)C(=O)N[C@@H](C)C(=O)N1)C(=O)N[C@@H](CC(C)C)C(=O)N[C@@H](CO)C(=O)O` (stereo partly shown) [S09, APKXVILKKAXAYILS—OH] (H-APK[X1]VILKKA[ξαMeNle(6-ylidene)]AYILS-OH; staple 4-11; N-terminus assumed), for which the IC50 came out at 3.6 µM in test [7]; 8.3 µM in test [1] (read-out: IC50 values in μM for S09, MM1R (resistant to Dexamethasone), MTT, 24-72 h, Table 7); 7.4 µM in test [2] (RPMI, MTT, 24-72 h, Table 7, read-out: IC50 values in μM for S09); 11.4 µM in test [3] (RPMI-LR5 (resistant to Melphalan), MTT, 24-72 h, Table 7, read-out: IC50 values in μM for S09); 7.5 µM in test [8]; 5 µM in test [4] (U266DOX4 (resistant to Doxorubicin), MTT, 24-72 h, Table 7, read-out: IC50 values in μM for S09). Besides, the IC50 turned out to be 9.7 µM in test [5] (U266LR7 (resistant to Melphalan), MTT, 24-72 h, Table 7, read-out: IC50 values in μM for S09) and 4.9 ± 0.3 µM in test [6] (MBA-MD231, MTT, 24-72 h, Table 12, read-out: IC50 values).
